Values of other authors as cited in PMC7199283 (Antiviral research, 2020).

System: HBV
Conditions: ref Hu et al., 2013

## CC(C)c1ccc(O)c(=O)c(O)c1 [β-thujaplicinol]
  accumulation of RNA:DNA heteroduplexes within HBV capsids: dose-dependent accumulation of RNA:DNA heteroduplexes
